From patent US20230303710A1, “METHODS AND COMPOSITIONS FOR INHIBITION OF DIHYDROOROTATE DEHYDROGENASE IN COMBINATION WITH AN ANTI-CD38 THERAPEUTIC AGENT” (OHIO STATE INNOVATION FOUNDATION, priority 2019, published 2023)

Key:
[1] = tested on: MV-411 cells with wild type (WT) p53; test: CD38 surface expression by flow cytometry in MV-411 cells with wild type p53; assay type: cell-based; settings: 1 µM, 72 hours, versus vehicle
Description: (§1) FIGS. 1A-1B show representative data for the effect of a representative DHODH inhibitor on the expression of CD38 in AML cells. Briefly, MV-411 cells with wild type (WT) p53 (FIG. 1A) or mutant p53 (FIG. 1B) were treated with brequinar (BRQ, 1 µM), or Cpd3 (1 µM) for 72 hours, and then the CD38 surface expression was determined by flow cytometry. The CD38 mean fluorescent intensity (MFI) is calculated based on the X-median expression.
(§2) MV-411 cells with wild type (WT) p53 or mutant p53 were treated with brequinar (BRQ, 1 µM), or Cpd3 (1 µM) for 72 hours. CD38 surface expression was determined by flow cytometry. The CD38 mean fluorescent intensity (MFI) is calculated based on the X-median expression. FIG. 1A show data obtained with MV-411 having wild type p53. […] FIG. 1B show the results obtained with MV-411 having a mutant p53.

[2] = tested on: MV-411 cells with mutant p53; test: CD38 surface expression by flow cytometry in MV-411 cells with mutant p53; assay type: cell-based; settings: 1 µM, 72 hours, versus vehicle
Description: as §1, §2

MV4-11 cells = test: MV4-11 xenograft (secondary engraftment) survival study in NSG mice; assay type: in vivo; settings: Cpd3 50 mg/kg PO MWF, daratumumab 1 µg/g IP TF
Description: FIGS. 2A-2D show representative data for the effect of a representative DHODH inhibitor in combination with an anti-CD38 antibody in a mouse xenograft model. FIG. 2A show representative data for percent survival versus time post-engraftment. Briefly, NSG mice were injected with 0.3 × 10^6 spleen cells from an MV4-11 engrafted leukemic donor mouse (N=7 per group). Starting at day 7 post-engraftment, mice were treated with vehicle; 50 mg/kg Cpd3 (PO; indicated as “Cpd3 PO” in the figure) on a dosing schedule of Monday/Wednesday/Friday (MWF); 1 µg/g daratumumab (IP; indicated as “Dara IP” in the figure) on a dosing schedule of Tuesday and Friday (TF); or Cpd3 and daratumumab combination (indicated as “Cpd3+Dara” in the figure). The Cpd3 and daratumumab combination treatment comprised dosing with 50 mg/kg Cpd3 on a dosing scheduled of Monday/Wednesday/Friday and dosing with 1 µg/g daratumumab on a dosing schedule of Tuesday and Friday (TF). Mice were monitored until reaching early/end removal criteria (ERC) and overall survival was calculated using Kapler Meyer analysis. The arrow indicates start of treatment. […] The treatment type is indicated below each photographic image as outlined for FIG. 2A. […] Weight loss is typically associated with leukemia progression and has also been associated with DHODH inhibitor treatment. […] Briefly, Spleens were isolated from the animals from each treatment group as they reached ERC. The percentage of human CD45+ cells in the spleen were determined by flow cytometry.
Xenograft Model Methodology. Animal studies were approved by the Institutional Laboratory Animal Care and Use Committee (IACUC) at the Ohio State University. 1E7 M4-11 cells were engrafted intravenously into NSG mice (males, 12-week old, strain NOD.Cg-Prkdcscid ll2rgtm1Wjl/SzJ). These mice were allowed to develop a fatal leukemia, at which point splenocytes containing leukemia cells were collected and cryopreserved. […] Overall survival was calculated using Kapler Meyer analysis. […]

[3] = tested on: a variety of unrelated viruses; settings: Harvey et al. (2009) Antiviral Res.; read-out: EC50, inhibition of virus replication in vitro; cited from earlier work
MOLM-13 cells = test: MOLM-13 xenograft survival study in NCG mice; assay type: in vivo; settings: Cpd4 10 mg/kg PO TIWK (MWF); Daratumumab 1 µg/g IP TF; Isatuximab 2.5 mg/kg IP TF; start 4 days post engraftment; vehicle 16.5
Description: Xenograft Model Methodology. Animal studies were performed at Charles River Laboratories (CRL). 1E5 MOLM-13 cells were engrafted intravenously into NCG mice (males, 8-12-week old). 4 days post engraftment, mice were randomly enrolled to receive: • 1. Vehicle • 2. 10 mg/kg Cpd 53 orally (daily) • 3. 10 mg/kg Cpd 53 orally (TIWK, Monday, Wednesday, and Friday) • 4. 4 mg/kg BAY2402234 orally (daily) • 5. 1 µg/g Daratumumab via intraperitoneal injection (BIWK, Tuesday and Friday) • 6. 2.5 µg/g Isatuximab via intraperitoneal injection (BIWK, Tuesday and Friday) • 7. Cpd4 (daily) and Daratumumab (BIWK) combination • 8. Cpd4 (TIWK) and Daratumumab (BIWK) combination • 9. BAY2402234 (daily) and Daratumumab (BIWK) combination • 10. Cpd4 (daily) and Isatuximab (BIWK) combination • 11. […]
Procedures used in the study are as follows: • Mice with 1×10^5 MOLM-13 tumor cells in 0% Matrigel iv tail vein. • Study start is 4 days post implant • Animals were randomized into treatment groups based on Day 1 bodyweight. • Cell Injection Volume was 0.2 mL/mouse. • Age at Start Date: 8 to 12 weeks. • Body Weight: qd x 5 then biwk to end • Any individual animal with a single observation of > than 30% body weight loss or three consecutive measurements of >25% body weight loss was euthanized. • Any group with a mean body weight loss of >20 % or >10% mortality ceased dosing. […] Animals were to be monitored individually. […]

## CCOc1ccc(-c2ccc(-c3cc(C(=O)O)c4cc(F)ccc4n3)cc2)cc1 [Cpd3, 2-(4′-ethoxy-[1,1′-biphenyl]-4-yl)-6-fluoroquinoline-4-carboxylic acid]
[1]
  CD38 surface expression (mean fluorescent intensity): upregulated
[2]
  CD38 surface expression (mean fluorescent intensity): highly upregulated
MV4-11 cells; FIG. 2A
  survival compared to the vehicle treatment control group / other treatment groups: modest improvement in survival
MV4-11 cells; start day 7 post-engraftment, vehicle 35 days
  Estimated median survival time (days PE): 42 days
MV4-11 cells; N=7 per group, start day 7 post-engraftment
  N died: 7

## O=C(N[C@@H]1CCCc2c1[nH]c1ccc(Cl)cc21)c1ccccn1 [GSK983]
[3]
  EC50: 5 to 20 nM

## Cc1c(-c2ccc(-c3ccccc3F)cc2)nc2ccc(F)cc2c1C(=O)O [brequinar, reference compound]
[1]
  CD38 surface expression (mean fluorescent intensity): upregulated
[2]
  CD38 surface expression (mean fluorescent intensity): highly upregulated

## CCCCOc1cccc(-c2ccc(-c3cc(C(=O)O)c4cc(F)ccc4n3)cc2)c1 [Cpd4, 2-(3′-butoxy-[1,1′-biphenyl]-4-yl)-6-fluoroquinoline-4-carboxylic acid]
MOLM-13 cells
  Median survival: 43 days
